Experimental data from US10759751B2, “Substituted spirocyclohexanes as muscarinic M1 receptor and/or M4 receptor agonists” (Heptares Therapeutics Limited, priority 2016, dated 2020).
Values belong to the compound of their own block, whether it stands above or below them.

Legend:
[1] = target: T1, human muscarinic M1 receptor (Homo sapiens, UniProt P11229); experiment: Alphascreen Surefire phospho-ERK1/2 functional assay, M1; type: cell-based; settings: for selectivity for the M1 receptor relative to the M4 receptor: M1 versus M4, in words; for EC50: phospho-ERK1/2, read-out: pEC50 M1 (converted); for Emax: CHO, read-out: M1 % Emax cf. ACh, CHO cells stably expressing human M1
T1 sequence (P11229 1-460): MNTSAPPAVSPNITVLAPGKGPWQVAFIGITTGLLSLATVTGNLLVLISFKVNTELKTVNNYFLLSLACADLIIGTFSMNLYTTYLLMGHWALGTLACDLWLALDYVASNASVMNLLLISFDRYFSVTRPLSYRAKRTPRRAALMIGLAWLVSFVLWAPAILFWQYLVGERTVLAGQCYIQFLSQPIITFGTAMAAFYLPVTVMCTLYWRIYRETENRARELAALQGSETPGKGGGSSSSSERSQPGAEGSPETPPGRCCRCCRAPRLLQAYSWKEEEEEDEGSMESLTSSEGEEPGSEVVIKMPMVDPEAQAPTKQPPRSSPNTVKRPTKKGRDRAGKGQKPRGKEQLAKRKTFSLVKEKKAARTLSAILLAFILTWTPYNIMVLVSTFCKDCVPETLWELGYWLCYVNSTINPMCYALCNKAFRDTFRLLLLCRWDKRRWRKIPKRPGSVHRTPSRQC
Method: (§1) Functional assays were performed using the Alphascreen Surefire phospho-ERK1/2 assay (Crouch & Osmond, Comb. Chem. High Throughput Screen, 2008). ERK1/2 phosphorylation is a downstream consequence of both Gq/11 and Gi/o protein coupled receptor activation, making it highly suitable for the assessment of M1, M3 (Gq/11 coupled) and M2, M4 receptors (Gi/o coupled), rather than using different assay formats for different receptor subtypes. CHO cells stably expressing the human muscarinic M1, M2, M3 or M4 receptor were plated (25K/well) onto 96-well tissue culture plates in MEM-alpha+10% dialysed FBS. Once adhered, cells were serum-starved overnight. Agonist stimulation was performed by the addition of 5 μL agonist to the cells for 5 min (37° C.). Media was removed and 50 μL of lysis buffer added. After 15 min, a 4 μL sample was transferred to 384-well plate and 7 μL of detection mixture added. Plates were incubated for 2 h with gentle agitation in the dark and then read on a PHERAstar plate reader.
(§2) pEC50 and Emax figures were calculated from the resulting data for each receptor subtype.

[2] = target: T2, human muscarinic M4 receptor (Homo sapiens, UniProt P08173); experiment: Alphascreen Surefire phospho-ERK1/2 functional assay, M4; type: cell-based; settings: for EC50: CHO cells stably expressing human M4, phospho-ERK1/2, read-out: pEC50 M4 (converted); for Emax: CHO, read-out: M4 % Emax cf. ACh, CHO cells stably expressing human M4, Emax relative to ACh
T2 construct: expressed in transfected cells
T2 sequence (P08173 1-479): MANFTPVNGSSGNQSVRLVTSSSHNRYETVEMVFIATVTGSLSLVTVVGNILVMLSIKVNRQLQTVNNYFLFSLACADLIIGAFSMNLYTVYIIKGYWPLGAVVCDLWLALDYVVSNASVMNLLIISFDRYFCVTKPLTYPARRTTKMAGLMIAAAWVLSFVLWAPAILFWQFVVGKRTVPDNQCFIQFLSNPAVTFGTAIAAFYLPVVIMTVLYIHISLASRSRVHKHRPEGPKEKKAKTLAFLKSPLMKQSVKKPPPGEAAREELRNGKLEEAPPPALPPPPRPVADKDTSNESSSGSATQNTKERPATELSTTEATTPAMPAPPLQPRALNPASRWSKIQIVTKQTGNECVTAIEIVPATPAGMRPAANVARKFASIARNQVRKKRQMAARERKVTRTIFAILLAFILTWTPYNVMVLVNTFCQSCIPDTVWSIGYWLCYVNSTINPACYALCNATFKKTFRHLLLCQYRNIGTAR
Method: as §1, §2

[3] = CHO cells stably expressing human M1

Compound: CCOC(=O)N[C@H]1CCN(C2CCC3(CC2)C(=O)Nc2ccccc23)C1 (single isomer, unassigned) [Example 2-1]
selectivity for the M1 receptor relative to the M4 receptor [1]: highly selective for the M1 receptor relative to the M4 receptor

Compound: CCOC(=O)N[C@H]1CCN(C2CCC3(CC2)C(=O)Nc2ncc(Cl)cc23)C1 (single isomer, unassigned) [Example 2-17]
selectivity for the M1 receptor relative to the M4 receptor [1]: highly selective for the M1 receptor relative to the M4 receptor

Compound: CCOC(=O)N[C@H]1CCN(C2CCC(C#N)(c3ccccc3)CC2)C1 (single isomer, unassigned) [Example 1-1]
selectivity for the M1 receptor relative to the M4 receptor [1]: highly selective for the M1 receptor relative to the M4 receptor

EC50 [1, 3]: 3.47 µM | Emax ([1]; Emax relative to ACh): 40% | EC50 [2]: 0.955 µM | Emax [2]: 55%
Compound: Cc1ccc(C2(C#N)CCC(N[C@@H]3CC[C@H](c4nc(C(F)(F)F)no4)C3)CC2)nc1 (single isomer, unassigned) [28-2 Isomer 2]

Compound: CCOC(=O)N1CCCN(C2CCC(C#N)(c3ccc(OCC)cn3)CC2)CC1 (centres unmarked) [Example 3-20, ethyl 4-[4-cyano-4-(5-ethoxypyridin-2-yl)cyclohexyl]-1,4-diazepane-1-carboxylate]
selectivity for the M1 receptor relative to the M4 receptor [1]: highly selective for the M1 receptor relative to the M4 receptor

EC50 [1, 3]: 0.372 µM | Emax ([1]; Emax relative to ACh): 32% | EC50 [2]: > 20 µM | Emax [2]: 16%
Compound: CCOC(=O)N[C@H]1CCN(C2CCC3(CC2)C(=O)Nc2ccc(OC)nc23)C1 (single isomer, unassigned) [2-20 isomer 1]

EC50 [1, 3]: 0.468 µM | Emax ([1]; Emax relative to ACh): 58% | EC50 [2]: 0.245 µM | Emax [2]: 86%
Compound: CCOC(=O)N(C)[C@@H]1CCN(C2CCC3(CC2)C(=O)Nc2cccnc23)C1 (single isomer, unassigned) [2-21 isomer 2]

EC50 [1, 3]: 0.437 µM | Emax ([1]; Emax relative to ACh): 89% | EC50 [2]: > 20 µM | Emax [2]: 19%
Compound: CCOC(=O)N1CCCN(C2CCC3(CC2)C(=O)Nc2ncc(OC)cc23)CC1 (single isomer, unassigned) [4-17 isomer 2]

EC50 [1, 3]: 2.09 µM | Emax ([1]; Emax relative to ACh): 63% | EC50 [2]: > 20 µM | Emax [2]: 19%
Compound: CCOC(=O)N[C@H]1CCN(C2CCC3(CC2)C(=O)Nc2cnc(OC)cc23)C1 (single isomer, unassigned) [2-19 isomer 1]

M1 % Emax cf. ACh ([1]; CHO cells stably expressing human M1, Emax relative to ACh): 18% | EC50 [1, 3]: > 20 µM | EC50 [2]: 1.07 µM | Emax [2]: 55%
Compound: Cc1ccc(C2(C#N)CCC(N3CCC4(CC(c5nc(C)no5)C4)C3)CC2)nc1 (single isomer, unassigned) [21-5 Isomer 1]

EC50 [1, 3]: 0.282 µM | Emax ([1]; Emax relative to ACh): 77% | EC50 [2]: > 20 µM | Emax [2]: 51%
Compound: CCOC(=O)N[C@H]1CCN(C2CCC3(CC2)C(=O)Nc2cc(OC)ccc23)C1 (single isomer, unassigned) [2-9 isomer 1]

Compound: CCOC(=O)N[C@H]1CCN(C2CCC(C#N)(c3cccc(Cl)c3)CC2)C1 (single isomer, unassigned) [Example 1-10]
selectivity for the M1 receptor relative to the M4 receptor [1]: highly selective for the M1 receptor relative to the M4 receptor

Compound: CCOC(=O)N1CCCN(C2CCC(C#N)(c3ccc(OC)cn3)CC2)CC1 (centres unmarked) [Example 3-19, ethyl 4-[4-(5-methoxypyridin-2-yl)-4-cyanocyclohexyl]-1,4-diazepane-1-carboxylate]
selectivity for the M1 receptor relative to the M4 receptor [1]: highly selective for the M1 receptor relative to the M4 receptor

Compound: CCOC(=O)N[C@H]1CCN(C2CCC3(CC2)C(=O)Nc2ccc(F)cc23)C1 (stereo partly drawn) [Example 2-8, ethyl [(3S)-1-(5′-fluoro-2′-oxo-1′,2′-dihydrospiro[cyclohexane-1,3′-indol]-4-yl)pyrrolidin-3-yl]carbamate]
selectivity for the M1 receptor relative to the M4 receptor [1]: highly selective for the M1 receptor relative to the M4 receptor

Compound: CCOC(=O)N1CCCN(C2CCC3(CC2)C(=O)Nc2ccc(OC)cc23)CC1 (centres unmarked) [Example 4-12, ethyl 4-(5′-methoxy-2′-oxo-1′,2′-dihydrospiro[cyclohexane-1,3′-indol]-4-yl)-1,4-diazepane-1-carboxylate]
selectivity for the M1 receptor relative to the M4 receptor [1]: highly selective for the M1 receptor relative to the M4 receptor

Compound: CCOC(=O)N[C@H]1CCN(C2CCC(C#N)(c3cccc(F)c3)CC2)C1 (single isomer, unassigned) [Example 1-3]
selectivity for the M1 receptor relative to the M4 receptor [1]: highly selective for the M1 receptor relative to the M4 receptor

Compound: CC#CCOC(=O)N1CCCN(C2CCC(C#N)(c3ccc(OC)cn3)CC2)CC1 (centres unmarked) [Example 3-32, but-2-yn-1-yl 4-[4-cyano-4-(5-methoxypyridin-2-yl)cyclohexyl]-1,4-diazepane-1-carboxylate]
selectivity for the M1 receptor relative to the M4 receptor [1]: highly selective for the M1 receptor relative to the M4 receptor

Compound: CCOC(=O)N1CCCN(C2CCC3(CC2)C(=O)Nc2ccc(C)cc23)CC1 (centres unmarked) [Example 4-7, ethyl 4-(5′-methyl-2′-oxo-1′,2′-dihydrospiro[cyclohexane-1,3′-indol]-4-yl)-1,4-diazepane-1-carboxylate]
selectivity for the M1 receptor relative to the M4 receptor [1]: highly selective for the M1 receptor relative to the M4 receptor

Compound: CCOC(=O)N[C@H]1CCN(C2CCC3(CC2)C(=O)Nc2ccc(C)cc23)C1 (single isomer, unassigned) [Example 2-5]
selectivity for the M1 receptor relative to the M4 receptor [1]: highly selective for the M1 receptor relative to the M4 receptor

Compound: CCOC(=O)N[C@H]1CCN(C2CCC3(CC2)C(=O)Nc2ccc(OC)cc23)C1 (single isomer, unassigned) [Example 2-10]
selectivity for the M1 receptor relative to the M4 receptor [1]: highly selective for the M1 receptor relative to the M4 receptor

Compound: CCOC(=O)N[C@H]1CCN(C2CCC3(CC2)C(=O)Nc2c(C)cccc23)C1 (single isomer, unassigned) [Example 2-3]
selectivity for the M1 receptor relative to the M4 receptor [1]: highly selective for the M1 receptor relative to the M4 receptor

Compound: CCOC(=O)N[C@H]1CCN(C2CCC(C#N)(c3ccc(F)cc3)CC2)C1 (single isomer, unassigned) [Example 1-4]
selectivity for the M1 receptor relative to the M4 receptor [1]: highly selective for the M1 receptor relative to the M4 receptor

EC50 [1, 3]: 0.0407 µM | Emax ([1]; Emax relative to ACh): 85%
Compound: CCOC(=O)N1CCN(C2CCC(C#N)(c3ccccc3)CC2)CC(O)C1 (mixture of isomers) [3-26 mixture of isomers]

Compound: C#CCOC(=O)N1CCCN(C2CCC(C#N)(c3ccc(OC)cn3)CC2)CC1 (centres unmarked) [Example 3-31, prop-2-yn-1-yl 4-[4-cyano-4-(5-methoxypyridin-2-yl)cyclohexyl]-1,4-diazepane-1-carboxylate]
selectivity for the M1 receptor relative to the M4 receptor [1]: highly selective for the M1 receptor relative to the M4 receptor

Compound: CCOC(=O)N1CCCN(C2CCC(c3nc(CC)c(C)[nH]3)CC2)CC1 (centres unmarked) [Example 5-1, ethyl 4-[4-(4-ethyl-5-methyl-1H-imidazol-2-yl)cyclohexyl]-1,4-diazepane-1-carboxylate]
selectivity for the M1 receptor relative to the M4 receptor [1]: highly selective for the M1 receptor relative to the M4 receptor

Compound: CCOC(=O)N[C@H]1CCN(C2CCC3(CC2)C(=O)Nc2cc(F)ccc23)C1 (stereo partly drawn) [Example 2-7, ethyl [(3S)-1-(6′-fluoro-2′-oxo-1′,2′-dihydrospiro[cyclohexane-1,3′-indol]-4-yl)pyrrolidin-3-yl]carbamate]
selectivity for the M1 receptor relative to the M4 receptor [1]: highly selective for the M1 receptor relative to the M4 receptor

Compound: CCOC(=O)N[C@H]1CCN(C2CCC3(CC2)C(=O)Nc2cc(C)ccc23)C1 (single isomer, unassigned) [Example 2-4]
selectivity for the M1 receptor relative to the M4 receptor [1]: highly selective for the M1 receptor relative to the M4 receptor

Compound: CCOC(=O)N[C@H]1CCN(C2CCC(C#N)(c3cccc(C)c3)CC2)C1 (single isomer, unassigned) [Example 1-9]
selectivity for the M1 receptor relative to the M4 receptor [1]: highly selective for the M1 receptor relative to the M4 receptor
